Legend:
[1] = molecular target: Plk1 (Homo sapiens (Human), UniProt P53350); experiment: PLK1 inhibition assay (radioactive-phosphate incorporation); type: biochemical; conditions: Ki(app), read-out: PLK1 - 33P.ENZ - CB 10 Ki
Method: Compounds were screened for their ability to inhibit Plk1 using a radioactive-phosphate incorporation assay. Assays were carried out in a mixture of 25 mM HEPES (pH 7.5), 10 mM MgCl2, 25 mM NaCl, and 2 mM DTT. Final substrate concentrations were 20 μM [γ-33P]ATP (35mCi 33P ATP/mmol ATP, Perkin Elmer/Sigma Chemicals) and 9 uM Sam68 protein. Assays were carried out at room temperature in the presence of 15 nM Plk1. An assay stock buffer solution was prepared containing all of the reagents listed above, with the exception of ATP and the test compound of interest. 0.75 μL of DMSO stock containing serial dilutions of the test compound (typically starting from a final concentration of 10 μM with 2-fold serial dilutions—final DMSO concentration 1.5%) was placed in a 384 well plate followed by addition of 25 μL [γ-33P]ATP (final concentration 20 μM). The reaction was initiated by addition of 25 μL of the assay stock buffer solution.
The reaction was stopped after 45 minutes by the addition of 25 μL 30% trichloroacetic acid (TCA) containing 10 mM cold ATP. The entire quenched reaction was transferred to a 384-well glass fiber filter plate (Millipore, Cat no. MZFBNOW50). The plate was washed with 3×5% TCA. After drying, 40 μL of Ultima Gold liquid scintillation cocktail (Perkin Elmer) was added to the well prior to scintillation counting in a PerkinElmer TopCount.
After removing mean background values for all of the data points, Ki(app) data were calculated from non-linear regression analysis of the initial rate data using the Prism software package (GraphPad Prism, GraphPad Software, San Diego California, USA).

[2] = test system: Colo205-TCF/LEF-Luciferase (Luc) tumor; experiment: In vivo inhibition of TCF/LEF reporter activity in Colo-205 tumors; set-up: concentration or dose not given beside the values; conditions: TCF/LEF luciferase reporter in Colo-205 tumors, nu/nu mice, oral gavage
Procedure, shortened: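 Female nu/nu mice carried subcutaneous Colo205-TCF/LEF-luciferase tumours (200–500 mm^3), n=4 per group. Compound was given by oral gavage in 1:3:5:1 EtOH:DMSO:PEG-400:H2O at 10 ml/kg, with vehicle as control. Luciferase activity in tumour lysates (Steady-Glo) was normalised to BCA protein.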

[3] = test system: β-catenin-TCF-mediated reporter transcription activity in Colo 205 cells; experiment: Colo 205 reporter assay (TCF/LEF luciferase); type: cell-based; conditions: Homo sapiens, COLO 205, 5 h, Colo 205 TCF/LEF luciferase reporter, five hours after addition of compound; read-out: TCF reporter Colo205 IC50
Procedure, shortened: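 Luciferase signal from a TCF/LEF-driven reporter, stably integrated in Colo 205 colon cancer cells, was measured 5 h after compound addition.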

[4] = test system: non-small cell lung cancer (NSCLC) adenocarcinoma line D33966; experiment: In vivo efficacy, NSCLC patient derived xenograft OD33966; set-up: species or system nu/nu mice; conditions: Mus musculus, 336 h; NSCLC PDX OD33966, oral, 100 mpk qd, treatment day 14; read-out: % TGI
Method: Female immune deficient mice (Charles River, 4-6 wks age) were anesthetized with Ketamine-Xylazine (140 mg/kg-14 mg/kg ip) and shaved. Puralube eye ointment was applied to the eyes to prevent desiccation of the corneas. Betadine and 70% ethanol was applied to the shaved location to sterilize the skin at the location of the incision. The animals were placed in a biosafety cabinet for the duration of the surgery. Using scissors, an 8 to 10 mm incision was made in the lateral flank of the skin. A tumor fragment weighing between 50 and 150 mg was placed under the skin at the incision site using forceps, and staples were used to close the incision. The staples were removed 5 to 7 days after surgery. Starting approximately two weeks after implantation, animals were weighed, and tumors were measured using caliper twice weekly. Tumor volume was calculated using the formula: volume=length×width^2×0.52.
Compound administration began when xenografts reached approximately 100-300 mm3 and continued until control xenografts reached […] of the animal's body weight. Test compounds were administered orally by gastric gavage. Percent tumor growth inhibition (TG) was calculated on the indicated treatment day. Percent TGI is defined as: [1−(del T/del C)]×100%, where del T is the final minus initial average volumes of the treated group, and del C is the final minus initial average volumes of the control group. […] The tested compounds were administered orally. Vehicle control consisted of either 0.5% methylcellulose/0.1% sodium lauryl sulfate or 20% captisol. Tumor volumes were determined by caliper measurement twice a week.

[5] = molecular target: HEK293 membranes over-expressing WFS-1 (Homo sapiens (Human), UniProt O76024); experiment: Radioligand displacement assay (tritiated Compound 136 probe); type: binding; conditions: displacement of tritiated Compound 136
HEK293 membranes over-expressing WFS-1, sequence (O76024 whole entry): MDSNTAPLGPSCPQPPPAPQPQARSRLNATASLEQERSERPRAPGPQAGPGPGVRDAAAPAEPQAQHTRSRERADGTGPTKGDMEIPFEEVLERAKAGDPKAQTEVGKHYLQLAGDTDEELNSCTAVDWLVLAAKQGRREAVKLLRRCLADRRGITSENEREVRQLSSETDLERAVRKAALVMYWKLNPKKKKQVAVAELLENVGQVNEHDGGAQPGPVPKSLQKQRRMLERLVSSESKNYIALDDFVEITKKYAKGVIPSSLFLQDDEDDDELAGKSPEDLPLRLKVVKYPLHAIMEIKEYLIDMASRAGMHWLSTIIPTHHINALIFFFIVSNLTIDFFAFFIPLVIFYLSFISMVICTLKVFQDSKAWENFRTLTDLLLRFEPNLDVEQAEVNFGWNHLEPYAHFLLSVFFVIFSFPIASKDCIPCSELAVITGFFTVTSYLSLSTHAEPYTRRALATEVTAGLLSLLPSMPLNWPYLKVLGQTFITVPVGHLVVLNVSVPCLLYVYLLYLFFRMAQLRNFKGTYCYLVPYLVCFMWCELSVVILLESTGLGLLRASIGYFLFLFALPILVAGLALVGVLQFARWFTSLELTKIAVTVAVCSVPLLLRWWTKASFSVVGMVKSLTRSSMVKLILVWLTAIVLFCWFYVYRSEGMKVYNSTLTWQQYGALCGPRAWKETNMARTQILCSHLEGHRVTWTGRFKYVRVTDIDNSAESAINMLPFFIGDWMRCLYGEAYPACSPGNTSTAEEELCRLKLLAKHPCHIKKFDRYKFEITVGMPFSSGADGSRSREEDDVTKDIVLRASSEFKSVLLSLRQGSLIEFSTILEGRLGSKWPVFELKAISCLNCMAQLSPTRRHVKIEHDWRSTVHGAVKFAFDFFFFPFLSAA
Method: Cell pellets were re-suspended in 15 times packed cellular volume in 4° C. hypotonic lysis buffer (10 mM HEPES, pH 7.5 containing 1×Protease inhibitor, 0.5 mM EDTA and 2 mM DTT). Re-suspended cells were homogenized with 6-8 strokes in a dounce homogenizer kept on ice. Lysates were centrifuged at 500×G for 15 minutes at 4° C. without brake to decelerate rotor. Following centrifugation, remove the supernatant to a fresh tube and place on ice (Supernatant 1). Repeat the above steps on the lysed cell pellet using 0.5 the original volume of hypotonic lysis buffer and remove the 500× G supernatant (Supernatant 2) and combine with Supernatant 1. Transfer the combined supernatants to a 45-Ti ultracentrifuge tube and centrifuge at 100,000× G for 30 minutes. Following ultracentrifugation, carefully remove the supernatant and discard. Resuspend the 100,000× G pellet in cold resuspension buffer (10 mM HEPES, pH 7.5, 300 mM NaCl containing 1× Protease inhibitor, 1× EDTA and 2 mM DTT). Centrifuge sample at 500× G for 10 minutes with no brake and remove any cloudy, flocculent material. Resuspend pellet in resuspension buffer to approximately 2 mg/mL of protein concentration for use in radioligand binding assay and immunoblotting.
The binding affinities of compounds were determined by measuring the competitive displacement of a tritiated Compound 136 probe from purified HEK293 membranes over-expressing WFS-1. The data for the radioligand displacement assay are summarized in Table 47: A<0.06 μM; 0.06 μM≤B<0.6 μM; 0.6 μM≤C<3.0 μM; D≥3.0 μM.
The probe Kd was determined by titrating tritiated probe under the standard assay conditions plus and minus excess unlabeled probe and fitting the resulting data to a “One site—Total and nonspecific binding” model in Graphpad Prism, version 6.0, San Diego, CA, US. Initially, 0.25 μl of compound dissolved in DMSO at varying concentrations was dispensed to a 384 well plate. Membrane and probe were both prepared at 2× their final concentration in 1× assay buffer as described above. 25 μL of membrane was added to the wells and incubated for 10 minutes. 25 μL of diluted probe was then added to the wells. The assay was incubated for 90 minutes at room temperature. The entire assay volume was then transferred to Millipore GF/B 384-well plates pretreated with 15 μL 0.5% PEI. The filter plates were washed 3× with 75 μL 25 mM TRIS, ph7.5, 0.1% BSA and then dried overnight. Following addition of 45 μL UltimaGold scintillant, the samples were counted in a Perkin Elmer Topcount. The radioactivity remaining is a measure of bound probe. From the bound probe vs concentration of compound titration curve, the IC50 is determined by fitting the data to a standard 3 parameter IC50 model using either Graphpad Prism, version 6.0, San Diego, CA, US, or using GeneData Analyzer, Basel, Switzerland.

[6] = test system: Colo-205 cells; experiment: Calcium flux assay (FLIPR Calcium 5); type: cell-based; conditions: Homo sapiens, COLO 205, 0.6 h, FLIPR Calcium 5, measured over 36 minutes
Method: Compounds described herein induced ER stress by causing intracellular calcium flux. Calcium flux was measured in Colo-205 cells using the FLTPR® Calcium 5 Assay Kit according to manufacter's protocol (Molecular Devices, Cat. #R8186) on a FLIPR3 system (Molecular Devices). Calcium flux is measured over 36 minutes. The Colo-205 calcium flux assay data are summarized in Table 47: A<0.6 μM; 0.6 μM≤B<2.0 μM; 2.0 μM≤C<10.0 μM; D≥10.0 μM.

[7] = test system: HepG2 XBP1(u)-Luc cells; experiment: HepG2 XBP1 reporter assay; type: cell-based; conditions: Homo sapiens, 6 h
Method: HepG2 hepatoma cells were transduced with a retrovirus encoding the cDNA for unspliced (u) XBP1, which contains a non-processed intron, fused to the cDNA for firefly luciferase. Upon induction of ER stress, the non-processed intron of XBP1(u) is spliced out by active IRE1alpha endonuclease. The resulting spliced (s) XBP1 is now in frame with luciferase which causes the production of active luciferase protein, resulting in bioluminescence
HepG2 XBP1(u)-Luc cells were plated […] Cultured cells with a stably transfected reporter construct were plated at approximately 30,000 cells per well into 96 well multi-well plates for twenty four hours. The testing compounds were then added to the wells in 3-fold serial dilutions using a twenty seven micromolar top concentration. A series of control wells for each cell type received only compound solvent. Six hours after the addition of compound, reporter activity for luciferase was assayed, by addition of the SteadyGlo luminescence reagent (Promega). The reporter luminescence activity was measured using Pherastar plate reader (BMG Labtech). Readings was normalized to DMSO only treated cells, and normalized activities were then used in the IC50 calculations. The HepG2 XBP1 reporter assay data are summarized in Table 47: A<0.6 μM; 0.6 μM≤B<2.0 μM; 2.0 μM≤C<10.0 μM; D≥10.0 μM.

[8] = test system: ER stress marker proteins XBP1(s) and ATF4; experiment: ER stress marker immunoblot in parental HepG2 vs WFS1 KO cells; type: cell-based; conditions: 6 hours, immunoblotting
Text: (§1) In contrast WFS1 depletion had no effect on thapsigargin induced changes in global gene expression (FIG. 7.)

[9] = test system: global gene expression in HepG2 cells; experiment: Global gene expression changes in HepG2 vs WFS1 depleted cells; type: cell-based; conditions: HepG2, 6 hours of exposure
Text: as §1

Plk1, sequence (P53350 whole entry, species assumed): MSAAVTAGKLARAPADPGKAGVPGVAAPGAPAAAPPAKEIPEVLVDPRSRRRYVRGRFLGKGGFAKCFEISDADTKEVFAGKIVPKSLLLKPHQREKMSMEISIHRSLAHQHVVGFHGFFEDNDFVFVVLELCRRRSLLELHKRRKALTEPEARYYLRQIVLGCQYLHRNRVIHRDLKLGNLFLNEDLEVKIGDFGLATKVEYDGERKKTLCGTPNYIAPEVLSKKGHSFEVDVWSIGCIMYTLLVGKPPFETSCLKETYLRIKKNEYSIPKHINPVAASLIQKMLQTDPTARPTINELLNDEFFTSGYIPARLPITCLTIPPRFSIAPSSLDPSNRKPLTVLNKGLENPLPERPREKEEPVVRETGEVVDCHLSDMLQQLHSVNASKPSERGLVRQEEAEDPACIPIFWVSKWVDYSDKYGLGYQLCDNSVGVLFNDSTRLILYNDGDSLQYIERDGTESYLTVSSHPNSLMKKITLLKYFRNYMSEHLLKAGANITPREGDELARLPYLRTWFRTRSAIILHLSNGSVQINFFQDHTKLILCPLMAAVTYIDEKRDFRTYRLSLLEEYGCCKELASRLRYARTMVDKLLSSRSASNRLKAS

Ki [1] [nM]	IC50 [3] [nM]	IC50 [5] [nM]	EC50 [6] [nM]	IC50 [7] [nM]	SMILES	Percent Remaining Activity at 8 hrs after Dosing [2] [%]	inhibition in vivo at 100 mg/kg [4] [%]	effect of WFS1 depletion on induction of XBP1(s) and ATF4 [8]	effect of WFS1 depletion on changes in global gene expression [9]
> 4000	< 300	–	–	–	Cc1nc(NCc2cnn(Cc3cc(F)c(F)c(F)c3)c2)nc2c1N(C)C(=O)[C@H](C)N2C [Compound 14, (7S)-4,5,7,8-tetramethyl-2-(((1-(3,4,5-trifluorobenzyl)-1H-pyrazol-4-yl)methyl)amino)-7,8-dihydropteridin-6(5H)-one]	33	–	–	–
> 4000	< 300	–	–	–	Cc1nc(NCc2cnn(Cc3ccc(F)cc3)c2)nc2c1N(C)C(=O)C1(CC1)N2C [Compound 223, 2′-(((1-(4-fluorobenzyl)-1H-pyrazol-4-yl)methyl)amino)-4′,5′,8′-trimethyl-5′,8′-dihydro-6′H-spiro[cyclopropane-1,7′-pteridin]-6′-one]	39	–	–	–
–	< 300	–	–	–	C[C@H]1C(=O)Nc2cnc(NCc3cnn(Cc4cc(F)c(F)c(F)c4)c3)nc2N1C [Compound 42, (7S)-7,8-dimethyl-2-(((1-(3,4,5-trifluorobenzyl)-1H-pyrazol-4-yl)methyl)amino)-7,8-dihydropteridin-6(5H)-one]	20	79.6	–	–
> 4000	< 300	60 to 600	600 to 2000	< 600	Cc1nc(N[C@H]2C[C@H](OCc3cc(F)c(F)c(F)c3)C2)nc2c1NC(=O)[C@H](C)N2C [Compound 254, (7S)-4,7,8-trimethyl-2-((trans-3-((3,4,5-trifluorobenzyl)oxy)cyclobutyl)amino)-7,8-dihydropteridin-6(5H)-one]	–	–	–	–
–	–	–	–	–	C/C=C(/C)C(=O)O[C@H]1C(C)=C2[C@H]([C@@H]1OC(=O)CCCCCCC)[C@@](C)(OC(C)=O)C[C@H](OC(=O)CCC)[C@@]1(O)[C@H]2OC(=O)[C@@]1(C)O [thapsigargin, reference compound]	–	–	much lesser effect	no effect
> 4000	< 300	–	–	–	CN1C(=O)C(C)(C)N(C)c2nc(NCc3cnn(Cc4cc(F)c(F)c(F)c4)c3)ncc21 [Compound 229, 5,7,7,8-tetramethyl-2-(((1-(3,4,5-trifluorobenzyl)-1H-pyrazol-4-yl)methyl)amino)-7,8-dihydropteridin-6(5H)-one]	49	–	–	–
